Drawing on patent US8664220B2, “Polycyclic compounds as lysophosphatidic acid receptor antagonists” (Amira Pharmaceuticals, Inc., priority 2009, dated 2014), this text covers IC50 for 25 compounds.

For the experiment, the target named is T1, human LPA1 (Homo sapiens, UniProt Q92633).
T1 construct: the full-length cDNA for human LPA1 was obtained by PCR of the reverse transcription reaction; expressed in transfected cells
The experiment in a line: LPA1 calcium flux assay. The experiment is classed as cell-based. The note with it: human LPA1 expressing CHO cells, stimulated with 10 nM LPA; read-out: HLPA1 Ca Flux IC50. Here is the method:
Establishment of a CHO Cell Line Stably Expressing Human LPA1
A 1.1 kb cDNA encoding the human LPA1 receptor was cloned from human lung.
Human lung RNA (Clontech Laboratories, Inc. USA) was reverse transcribed using the RETROscript kit (Ambion, Inc.) and the full-length cDNA for human LPA1 was obtained by PCR of the reverse transcription reaction. The nucleotide sequence of the cloned human LPA1 was determined by sequencing and confirmed to be identical to the published human LPA1 sequence (An et al. Biochem. Biophys. Res. Commun. 231:619 (1997). The cDNA was cloned into the pcDNA5/FRT expression plasmid and transfected in CHO cells using lipofectamine 2000 (Invitrogen Corp., USA). Clones stably expressing human LPA1 were selected using hygromycin and identified as cells that show Ca-influx in response to LPA.
LPA1 and LPA3 Calcium Flux Assays
Human LPA1 or LPA3 expressing CHO cells are seeded at 20,000-45,000 cells per well in a 96-well poly-D-lysine coated plate one or two days before the assay. Prior to the assay, the cells are washed once with PBS and then cultured in serum-free media overnight. On the day of the assay, a calcium indicator dye (Calcium 4, Molecular Devices) in assay buffer (HBSS with Ca^2+ and Mg^2+ and containing 20 mM Hepes and 0.3% fatty-acid free human serum albumin) is added to each well and incubation continued for 1 hour at 37° C. 10 μl of test compounds in 2.5% DMSO are added to the cells and incubation continued at room temperature for 30 minutes. Cells are the stimulated by the addition of 10 nM LPA and intracellular Ca^2+ measured using the Flexstation 3 (Molecular Devices). IC50s are determined using Graphpad prism analysis of drug titration curves.
(A change in cytosolic calcium serves as a functional read-out for many receptors and channels.)

As a reminder, the IC50 is the concentration needed to halve the response being measured.

T1 sequence (Q92633 whole entry): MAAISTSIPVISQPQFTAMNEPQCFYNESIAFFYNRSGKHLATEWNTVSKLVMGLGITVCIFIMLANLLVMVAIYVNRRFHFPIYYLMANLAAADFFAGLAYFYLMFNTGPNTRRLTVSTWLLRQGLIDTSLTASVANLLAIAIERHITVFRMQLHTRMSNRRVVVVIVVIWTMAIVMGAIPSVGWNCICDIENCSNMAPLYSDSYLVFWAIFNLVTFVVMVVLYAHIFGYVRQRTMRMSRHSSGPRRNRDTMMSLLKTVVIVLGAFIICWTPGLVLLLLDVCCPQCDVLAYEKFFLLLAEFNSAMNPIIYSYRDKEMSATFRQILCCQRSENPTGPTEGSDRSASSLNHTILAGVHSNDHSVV

For `Cc1noc(-c2ccc(-c3ccc(C4(C(=O)O)CC4)cc3)cc2)c1NC(C)[C@@H]1C[C@H]1c1ccccc1` (relative stereo) [Compound 1-66, 1-(4′-{3-Methyl-4-[trans-1-(2-phenyl-cyclopropyl)-ethylamino]-isoxazol-5-yl}-biphenyl-4-yl)-cyclopropanecarboxylic acid], the IC50 was under 300 nM. Then `Cc1noc(-c2ccc(-c3ccc(C4(C(=O)O)CC4)cc3)cc2)c1C1CC1C(=O)N(C)[C@H](C)c1ccccc1` (single isomer, unassigned) [Compound 1-26], with 300 to 1000 nM. Consider `Cc1noc(-c2ccc(-c3ccc(C4(C(=O)O)CC4)cc3)cc2)c1C1CC1C(=O)N(C)[C@H](C)c1ccccc1` (single isomer, unassigned) [Compound 1-27], for which the IC50 lay within 300 to 1000 nM. As for `Cc1noc(-c2ccc(-c3ccc(C4(C(=O)O)CC4)cc3)cc2)c1C(O)c1nnc(Cc2ccccc2)o1` (single isomer, unassigned) [Compound 1-34, 1-(4′-{4-[(5-Benzyl-[1,3,4]oxadiazol-2-yl)-hydroxy-methyl]-3-methyl-isoxazol-5-yl}-biphenyl-4-yl)-cyclopropanecarboxylic acid], the IC50 was under 300 nM. Then `Cc1noc(-c2ccc(-c3ccc(C4(C(=O)O)CC4)cc3)cc2)c1C(O)c1nnc(Cc2ccccc2)o1` (single isomer, unassigned) [Compound 1-35, 1-(4′-{4-[(5-Benzyl-[1,3,4]oxadiazol-2-yl)-hydroxy-methyl]-3-methyl-isoxazol-5-yl}-biphenyl-4-yl)-cyclopropanecarboxylic acid], with under 300 nM; and `Cc1noc(-c2ccc(-c3ccc(C4(C(=O)O)CC4)cc3)cc2)c1C(O)c1cn(Cc2ccccc2)nn1` (single isomer, unassigned) [Compound 1-40, 1-(4′-{4-[(1-Benzyl-1H-[1,2,3]triazol-4-yl)-hydroxy-methyl]-3-methyl-isoxazol-5-yl}-biphenyl-4-yl)-cyclopropanecarboxylic acid], with under 300 nM; and `Cc1noc(-c2ccc(-c3ccc(C4(CC(=O)O)CC4)cc3)cc2)c1NC(C)c1cc(-c2ccccc2)no1` (single isomer, unassigned) [Compound 1-43, [1-(4′-{3-Methyl-4-[1-(3-phenyl-isoxazol-5-yl)-ethylamino]-isoxazol-5-yl}-biphenyl-4-yl)-cyclopropyl]-acetic acid], with under 300 nM. Turning to `Cc1noc(-c2ccc(-c3ccc(C4(CC(=O)O)CC4)cc3)cc2)c1NC(C)c1cc(-c2ccccc2)no1` (single isomer, unassigned) [Compound 1-44, [1-(4′-{3-Methyl-4-[1-(3-phenyl-isoxazol-5-yl)-ethylamino]-isoxazol-5-yl}-biphenyl-4-yl)-cyclopropyl]-acetic acid], the IC50 was under 300 nM.

`Cc1noc(-c2ccc(-c3ccc(C4(C(=O)NS(C)(=O)=O)CC4)cc3)cc2)c1C(O)c1cn(Cc2ccccc2)nn1` (single isomer, unassigned) [Compound 3-1, N-[1-(4′-{4-[(1-Benzyl-1H-[1,2,3]triazol-4-yl)-hydroxy-methyl]-3-methyl-isoxazol-5-yl}-biphenyl-4-yl)-cyclopropanecarbonyl]-methanesulfonamide]: the IC50 is under 300 nM. As for `Cc1noc(-c2ccc(-c3ccc(C4(C(=O)NS(C)(=O)=O)CC4)cc3)cc2)c1C(O)c1nnc(Cc2ccccc2)o1` (single isomer, unassigned) [Compound 3-2, N-[1-(4′-{4-[(5-Benzyl-[1,3,4]oxadiazol-2-yl)-hydroxy-methyl]-3-methyl-isoxazol-5-yl}-biphenyl-4-yl)-cyclopropanecarbonyl]-methanesulfonamide], the IC50 was under 300 nM. To `Cc1noc(-c2ccc(-c3ccc(C4(C(=O)O)CC4)cc3)cc2)c1NC1CCCCC1Cc1ccccc1` (stereo not shown) [Compound 1-1, 1-{4′-[4-(2-Benzyl-cyclohexylamino)-3-methyl-isoxazol-5-yl]-biphenyl-4-yl}-cyclopropanecarboxylic acid] belongs under 300 nM. Then `Cc1ccccc1N1CCN(C(=O)c2c(C)noc2-c2ccc(-c3ccc(C4(C(=O)O)CC4)cc3)cc2)CC1` [Compound 1-2, 1-{4′-[3-Methyl-4-(4-o-tolyl-piperazine-1-carbonyl)-isoxazol-5-yl]-biphenyl-4-yl}-cyclopropanecarboxylic acid], with 1000 to 50000 nM. To `Cc1noc(-c2ccc(-c3ccc(C4(C(=O)O)CC4)cc3)cc2)c1C(=O)N1CCN(S(=O)(=O)c2ccc(Cl)c(Cl)c2)CC1` [Compound 1-3, 1-(4′-{4-[4-(3,4-Dichloro-benzenesulfonyl)-piperazine-1-carbonyl]-3-methyl-isoxazol-5-yl}-biphenyl-4-yl)-cyclopropanecarboxylic acid] belongs 1000 to 50000 nM; to `Cc1noc(-c2ccc(-c3ccc(C4(C(=O)O)CC4)cc3)cc2)c1C1OC1CCc1ccccc1` (stereo not shown) [Compound 1-4, 1-{4′-[3-Methyl-4-(3-phenethyl-oxiranyl)-isoxazol-5-yl]-biphenyl-4-yl}-cyclopropanecarboxylic acid], under 300 nM; to `Cc1noc(-c2ccc(-c3ccc(C4(C(=O)O)CC4)cc3)cc2)c1Cn1ccc(-c2ccccc2)n1` [Compound 1-5, 1-{4′-[3-Methyl-4-(3-phenyl-pyrazol-1-ylmethyl)-isoxazol-5-yl]-biphenyl-4-yl}-cyclopropanecarboxylic acid], under 300 nM.

On to `Cc1noc(-c2ccc(-c3ccc(C4(C(=O)O)CC4)cc3)cc2)c1Cn1cc(-c2ccccc2)nn1` [Compound 1-6, 1-{4′-[3-Methyl-4-(4-phenyl-[1,2,3]triazol-1-ylmethyl)-isoxazol-5-yl]-biphenyl-4-yl}-cyclopropanecarboxylic acid], for which the IC50 was under 300 nM. To `Cc1noc(-c2ccc(-c3ccc(C4(C(=O)O)CC4)cc3)cc2)c1CN1CC(c2ccccc2)CC1=O` (stereo not shown) [Compound 1-7, 1-{4′-[3-Methyl-4-(2-oxo-4-phenyl-pyrrolidin-1-ylmethyl)-isoxazol-5-yl]-biphenyl-4-yl}-cyclopropanecarboxylic acid] belongs under 300 nM; to `Cc1noc(-c2ccc(-c3ccc(C4(C(=O)O)CC4)cc3)cc2)c1Cc1nnc(-c2ccccc2)o1` [Compound 1-8, 1-{4′-[3-Methyl-4-(5-phenyl[1,3,4]oxadiazol-2-ylmethyl)-isoxazol-5-yl]-biphenyl-4-yl}-cyclopropanecarboxylic acid], under 300 nM. Then `Cc1noc(-c2ccc(-c3ccc(C4(C(=O)O)CC4)cc3)cc2)c1Cn1cc(Cc2ccccc2)nn1` [Compound 1-9, 1-{4′-[4-(4-Benzyl-[1,2,3]triazol-1-ylmethyl)-3-methyl-isoxazol-5-yl]-biphenyl-4-yl}-cyclopropanecarboxylic acid], with under 300 nM; and `Cc1noc(-c2ccc(-c3ccc(C4(C(=O)O)CC4)cc3)cc2)c1CN1CCC(c2ccccc2)CC1` [Compound 1-10, 1-{4′-[3-Methyl-4-(4-phenyl-piperidin-1-ylmethyl)-isoxazol-5-yl]-biphenyl-4-yl}-cyclopropanecarboxylic acid], with over 50000 nM; and `Cc1noc(-c2ccc(-c3ccc(C4(C(=O)O)CC4)cc3)cc2)c1Cn1nc(-c2ccccc2)oc1=N` [Compound 1-11, 1-{4′-[4-(2-Imino-5-phenyl-[1,3,4]oxadiazol-3-ylmethyl)-3-methyl-isoxazol-5-yl]-biphenyl-4-yl}-cyclopropanecarboxylic acid], with under 300 nM.

`Cc1noc(-c2ccc(-c3ccc(C4(C(=O)O)CC4)cc3)cc2)c1CN1C(=O)OC[C@@H]1Cc1ccccc1` [Compound 1-12, 1-{4′-[4-((S)-4-Benzyl-2-oxo-oxazolidin-3-ylmethyl)-3-methyl-isoxazol-5-yl]-biphenyl-4-yl}-cyclopropanecarboxylic acid]: the IC50 was over 50000 nM. Then `Cc1noc(-c2ccc(-c3ccc(C4(C(=O)O)CC4)cc3)cc2)c1Cn1ccc(-c2ccc(Br)cc2)n1` [Compound 1-13, 1-(4′-{4-[3-(4-Bromo-phenyl)-pyrazol-1-ylmethyl]-3-methyl-isoxazol-5-yl}-biphenyl-4-yl)-cyclopropanecarboxylic acid], with 1000 to 50000 nM. For `Cc1noc(-c2ccc(-c3ccc(C4(C(=O)O)CC4)cc3)cc2)c1CN1C(=O)OC[C@@H]1c1ccccc1` [Compound 1-14, 1-{4′-[3-Methyl-4-((S)-2-oxo-4-phenyl-oxazolidin-3-ylmethyl)-isoxazol-5-yl]-biphenyl-4-yl}-cyclopropanecarboxylic acid], the IC50 is 1000 to 50000 nM. As for `Cc1noc(-c2ccc(-c3ccc(C4(C(=O)O)CC4)cc3)cc2)c1CN1C(=O)O[C@@H](c2ccccc2)[C@H]1C` [Compound 1-15, 1-{4′-[3-Methyl-4-((4R,5S)-4-methyl-2-oxo-5-phenyl-oxazolidin-3-ylmethyl)-isoxazol-5-yl]-biphenyl-4-yl}-cyclopropanecarboxylic acid], the IC50 lay in the range of 300 to 1000 nM.
